Data as given in patent US10098350B2, “Fungicidal amides” (E. I. DU PONT DE NEMOURS AND COMPANY, priority 2013, dated 2018).

Legend:
Format in all cases: in vivo
[1] = test system: Stagonospora nodorum (also known as Septoria nodorum); experiment: Test B: wheat seedlings sprayed with test suspension, inoculated with Stagonospora nodorum (wheat glume blotch), visual disease rating
Text: (§1) General protocol for preparing test suspensions for Tests A-E: the test compounds were first dissolved in acetone in an amount equal to 3% of the final volume and then suspended at the desired concentration (in ppm) in acetone and purified water (50/50 mix by volume) containing 250 ppm of the surfactant Trem® 014 (polyhydric alcohol esters). The resulting test suspensions were then used in Tests A-E. Samples were applied to plants at either a 10 ppm (**), 40 ppm, 50 ppm (*) or 200 ppm (#) test solution to the point of run-off on the test plants with the equivalent of a rate of 40 g ai/ha, 160 g ai/ha, 200 g ai/ha, or 800 g ai/ha, respectively.
The test suspension was sprayed to the point of run-off on wheat seedlings. The following day the seedlings were inoculated with a spore suspension of Stagonospora nodorum (also known as Septoria nodorum; the causal agent of wheat glume blotch) and incubated in a saturated atmosphere at 20° C. for 48 h, and then moved to a growth chamber at 20° C. for 6 days, after which time visual disease ratings were made.
(§2) Results for Tests A-E are given in Table A. In the Table, a rating of 100 indicates 100% disease control and a rating of 0 indicates no disease control (relative to the controls). A dash (-) indicates no test results.

[2] = test system: Erysiphe graminis f. sp. tritici; experiment: Test E: wheat seedlings sprayed with test suspension, inoculated with Erysiphe graminis f. sp. tritici (wheat powdery mildew), visual disease rating
Text: as §1
The test suspension was sprayed to the point of run-off on wheat seedlings. The following day the seedlings were inoculated with a spore dust of Erysiphe graminis f. sp. tritici, (the causal agent of wheat powdery mildew) and incubated in a growth chamber at 20° C. for 7 or 8 days, after which time visual disease ratings were made.
as §2

[3] = test system: Puccinia recondite f. sp. tritici; experiment: Test D: wheat seedlings sprayed with test suspension, inoculated with Puccinia recondite f. sp. tritici (wheat leaf rust), visual disease rating
Text: as §1
The test suspension was sprayed to the point of run-off on wheat seedlings. The following day the seedlings were inoculated with a spore suspension of Puccinia recondite f. sp. tritici; (the causal agent of wheat leaf rust) and incubated in a saturated atmosphere at 20° C. for 24 h, and then moved to a growth chamber at 20° C. for 6 days, after which time visual disease ratings were made.
as §2

[4] = test system: Septoria tritici; experiment: Test C: wheat seedlings sprayed with test suspension, inoculated with Septoria tritici (wheat leaf blotch), visual disease rating
Text: as §1
The test suspension was sprayed to the point of run-off on wheat seedlings. The following day the seedlings were inoculated with a spore suspension of Septoria tritici (the causal agent of wheat leaf blotch) and incubated in a saturated atmosphere at 24° C. for 48 h, and then moved to a growth chamber at 20° C. for 21 days, after which time visual disease ratings were made.
as §2

[5] = Cmpd. No. unmarked, 100 = 100% disease control, 0 = no control relative to controls
[6] = Cmpd. No. marked '**' (other test rate; meaning of mark not shown)
[7] = Cmpd. No. marked '*' (other test rate; meaning of mark not shown)

With `Cn1nc(C(F)F)c(C(=O)N(Cc2ccc(-n3cnc(Br)n3)cc2Cl)C2CC2)c1F` [compound 147] the “Test B rating (% disease control)” value [1, 5] was 0%, the “Test E rating (% disease control)” value [2, 5] was 0% and the “Test D rating (% disease control)” value [3, 5] was 0%. The “Test C rating (% disease control)” value [4, 5] was 93%.

For `Cn1nc(C(F)F)c(C(=O)N(Cc2ccc(-n3ccc(C(F)(F)F)n3)c(Br)c2)C2CC2)c1F` [compound 98], the “Test B rating (% disease control)” value [1, 6] was 64%, the “Test E rating (% disease control)” value [2, 6] was 84% and the “Test D rating (% disease control)” value [3, 6] was 86%. For the same molecule, the “Test C rating (% disease control)” value [4, 6] was 94%.

With `Cn1nc(C(F)F)c(C(=O)N(Cc2c(Cl)cc(-n3cccn3)cc2Cl)C2CC2)c1F` [compound 125] the “Test B rating (% disease control)” value [1, 5] was 100%, the “Test E rating (% disease control)” value [2, 5] was 92% and the “Test D rating (% disease control)” value [3, 5] was 100%. The “Test C rating (% disease control)” value [4, 5] was 99%.

With `Cn1cc(C(=O)N(Cc2ccc(-n3ccc(Br)n3)cc2Cl)C2CC2)c(C(F)F)n1` [compound 49] the “Test B rating (% disease control)” value [1, 5] was 98%, the “Test E rating (% disease control)” value [2, 5] was 69% and the “Test D rating (% disease control)” value [3, 5] was 9%. The “Test C rating (% disease control)” value [4, 5] was 99%.

With `Cc1ccc(-n2ccc(C(F)(F)F)n2)cc1CN(C(=O)c1c(C(F)F)nn(C)c1F)C1CC1` [compound 84] the “Test B rating (% disease control)” value [1, 7] was 100%, the “Test E rating (% disease control)” value [2, 7] was 94% and the “Test D rating (% disease control)” value [3, 7] was 89%. For the same molecule, the “Test C rating (% disease control)” value [4, 7] was 98%.

In the case of `Cn1nc(C(F)F)c(C(=O)N(Cc2ccc(-n3ccc(C(F)(F)F)n3)cc2Cl)C2CCC2)c1F` [Compound 162], the “Test B rating (% disease control)” value [1, 6] is reported as 0%, the “Test E rating (% disease control)” value [2, 6] is reported as 0% and the “Test D rating (% disease control)” value [3, 6] is reported as 0%. The “Test C rating (% disease control)” value [4, 6] was 64%.

`Cc1cc(-n2ccc(C(F)(F)F)n2)cnc1CN(C(=O)c1cn(C)nc1C(F)F)C1CC1` [compound 124] was tested, and the “Test B rating (% disease control)” value [1, 5] was 0%, the “Test E rating (% disease control)” value [2, 5] was 73% and the “Test D rating (% disease control)” value [3, 5] was 0%. For the same molecule, the “Test C rating (% disease control)” value [4, 5] was 94%.

With `Cn1cc(C(=O)N(Cc2c(F)cc(-n3ccc(C(F)(F)F)n3)cc2F)C2CC2)c(C(F)F)n1` [compound 71] the “Test B rating (% disease control)” value [1, 5] was 92%, the “Test E rating (% disease control)” value [2, 5] was 91% and the “Test D rating (% disease control)” value [3, 5] was 0%. The “Test C rating (% disease control)” value [4, 5] was 99%.

In the case of `Cn1nc(C(F)F)c(C(=O)N(Cc2c(Cl)cc(-n3ccc(Br)n3)cc2Cl)C2CC2)c1F` [compound 132], the “Test B rating (% disease control)” value [1, 5] is reported as 100%, the “Test E rating (% disease control)” value [2, 5] is reported as 91% and the “Test D rating (% disease control)” value [3, 5] is reported as 100%. The “Test C rating (% disease control)” value [4, 5] was 99%.

For `Cc1cc(-n2ccc(C(F)(F)F)n2)ccc1CN(C(=O)c1c(C(F)F)nn(C)c1F)C1CC1` [compound 105], the “Test B rating (% disease control)” value [1, 5] was 100%, the “Test E rating (% disease control)” value [2, 5] was 98% and the “Test D rating (% disease control)” value [3, 5] was 99%. The “Test C rating (% disease control)” value [4, 5] was 98%.

With `Cn1nc(C(F)F)c(C(=O)N(Cc2ccc(-n3ccc(C(F)(F)F)n3)cc2OCC#N)C2CC2)c1F` [compound 61] the “Test B rating (% disease control)” value [1, 5] was 0%, the “Test E rating (% disease control)” value [2, 5] was 21% and the “Test D rating (% disease control)” value [3, 5] was 9%. For the same molecule, the “Test C rating (% disease control)” value [4, 5] was 90%.

In the case of `Cn1nc(C(F)F)c(C(=O)N(Cc2ccc(-n3cc(Cl)cn3)cc2Cl)C2CC2)c1F` [compound 143], the “Test B rating (% disease control)” value [1, 5] is reported as 100%, the “Test E rating (% disease control)” value [2, 5] is reported as 99% and the “Test D rating (% disease control)” value [3, 5] is reported as 99%. The “Test C rating (% disease control)” value [4, 5] was 99%.

For `COc1ccc(-n2ccc(C(F)(F)F)n2)cc1C(C)N(C(=O)c1c(C(F)F)nn(C)c1F)C1CC1` (stereo not drawn) [compound 142], the “Test B rating (% disease control)” value [1, 7] was 100%, the “Test E rating (% disease control)” value [2, 7] was 98% and the “Test D rating (% disease control)” value [3, 7] was 83%. The “Test C rating (% disease control)” value [4, 7] was 97%.

For `CC(c1cc(-n2ccc(C(F)(F)F)n2)ccc1[N+](=O)[O-])N(C(=O)c1cn(C)nc1C(F)F)C1CC1` (stereo not drawn) [compound 129], the “Test B rating (% disease control)” value [1, 5] was 0%, the “Test E rating (% disease control)” value [2, 5] was 0% and the “Test D rating (% disease control)” value [3, 5] was 0%. The “Test C rating (% disease control)” value [4, 5] was 10%.

With `COc1ccc(C(C)N(C(=O)c2c(C(F)F)nn(C)c2F)C2CC2)cc1-n1ccc(C(F)(F)F)n1` (stereo not drawn) [compound 55] the “Test B rating (% disease control)” value [1, 5] was 100%, the “Test E rating (% disease control)” value [2, 5] was 87% and the “Test D rating (% disease control)” value [3, 5] was 61%. The “Test C rating (% disease control)” value [4, 5] was 97%.

With `CC(c1cc(-n2ccc(C(F)(F)F)n2)ccc1OC(F)(F)F)N(C(=O)c1cn(C)nc1C(F)F)C1CC1` (stereo not drawn) [compound 130] the “Test B rating (% disease control)” value [1, 5] was 93%, the “Test E rating (% disease control)” value [2, 5] was 72% and the “Test D rating (% disease control)” value [3, 5] was 68%. For the same molecule, the “Test C rating (% disease control)” value [4, 5] was 28%.

With `CC(c1ncc(-n2cc(Cl)cn2)cc1Cl)N(C(=O)c1c(C(F)F)nn(C)c1F)C1CC1` (racemic) [compound 97] the “Test B rating (% disease control)” value [1, 6] was 100%, the “Test E rating (% disease control)” value [2, 6] was 94% and the “Test D rating (% disease control)” value [3, 6] was 94%. For the same molecule, the “Test C rating (% disease control)” value [4, 6] was 97%.

With `Cn1cc(C(=O)N(Cc2ccc(-n3cncn3)cc2Cl)C2CC2)c(C(F)F)n1` [compound 50] the “Test B rating (% disease control)” value [1, 5] was 0%, the “Test E rating (% disease control)” value [2, 5] was 0% and the “Test D rating (% disease control)” value [3, 5] was 0%. The “Test C rating (% disease control)” value [4, 5] was 28%.

With `Cn1nc(C(F)F)c(C(=O)N(Cc2ccc(-n3ccc(Br)n3)cc2Cl)C2CC2)c1F` [compound 47] the “Test B rating (% disease control)” value [1, 5] was 100%, the “Test E rating (% disease control)” value [2, 5] was 99% and the “Test D rating (% disease control)” value [3, 5] was 98%. For the same molecule, the “Test C rating (% disease control)” value [4, 5] was 99%.

For `CC(c1cc(-n2ccc(C(F)(F)F)n2)ccc1Cl)N(C(=O)c1cn(C)nc1C(F)F)C1CC1` (stereo not drawn) [compound 119], the “Test B rating (% disease control)” value [1, 5] was 99%, the “Test E rating (% disease control)” value [2, 5] was 92% and the “Test D rating (% disease control)” value [3, 5] was 93%. For the same molecule, the “Test C rating (% disease control)” value [4, 5] was 92%.

With `COc1ccc(-n2ccc(C(F)(F)F)n2)cc1C(C)N(C(=O)c1cn(C)nc1C(F)F)C1CC1` (stereo not drawn) [compound 120] the “Test B rating (% disease control)” value [1, 5] was 100%, the “Test E rating (% disease control)” value [2, 5] was 95% and the “Test C rating (% disease control)” value [4, 5] was 92%.

`Cn1nc(C(F)F)c(C(=O)N(Cc2ccc(-n3cnc(C(F)(F)F)n3)cc2Cl)C2CC2)c1F` [compound 67] was tested, and the “Test B rating (% disease control)” value [1, 5] was 0%, the “Test E rating (% disease control)” value [2, 5] was 0% and the “Test D rating (% disease control)” value [3, 5] was 0%. For the same molecule, the “Test C rating (% disease control)” value [4, 5] was 99%.

For `COc1ccc(-n2ccc(C(F)(F)F)n2)cc1CN(C(=O)c1c(C(F)F)nn(C)c1F)C1CC1` [compound 113], the “Test E rating (% disease control)” value [2, 7] was 97%, the “Test D rating (% disease control)” value [3, 7] was 99% and the “Test C rating (% disease control)” value [4, 7] was 100%.

In the case of `CC(c1cccc(-n2ccc(C(F)(F)F)n2)c1Cl)N(C(=O)c1cn(C)nc1C(F)F)C1CC1` (stereo not drawn) [compound 77], the “Test E rating (% disease control)” value [2, 6] is reported as 64%, the “Test D rating (% disease control)” value [3, 6] is reported as 9% and the “Test C rating (% disease control)” value [4, 6] is reported as 82%.

With `Cn1nc(C(F)F)c(C(=O)N(Cc2ccc(-n3ccc(C(F)(F)F)n3)c(C(F)(F)F)c2)C2CC2)c1F` [compound 95] the “Test E rating (% disease control)” value [2, 6] was 27%, the “Test D rating (% disease control)” value [3, 6] was 67% and the “Test C rating (% disease control)” value [4, 6] was 87%.

For `Cn1nc(C(F)F)c(C(=O)N(Cc2cccc(-n3ccc(C(F)(F)F)n3)c2C(F)(F)F)C2CC2)c1F` [compound 137], the “Test E rating (% disease control)” value [2, 7] was 87%, the “Test D rating (% disease control)” value [3, 7] was 98% and the “Test C rating (% disease control)” value [4, 7] was 94%.
